This assay has as its system MDA-MB-231 breast cancer cells. Kind of assay: Live/dead cell count (Muse). Conditions: 24 h. In kind it is cell-based, human. The protocol: Figure 2 DJ4 reduces cell survival and inhibits colony forming ability of the cancer cells. (A) Different NSCLC cells were plated in a 96-well plate to confluence and then treated for 72 h. Cytotoxicity was assessed by MTT assay. The error bars indicate SEM of triplicates. (B) To assess cytotoxicity of DJ4 in breast cancer cells, MDA-MB-231 cells were treated for 24 h with indicated concentrations of DJ4. Percentage of live cells were counted using Muse^TM Live/Dead reagent and analyzed by Muse^TM cell analyzer. Error bars indicate SEM. n = 2. * p < 0.05. (C) DJ4 inhibits colony forming ability of A549 cells treated for 48 h. After a 48-h treatment, cells were seeded with number of cells mentioned in the table and were allowed to grow and form colonies. At the end of 14 days, colonies were stained and counted. Percent surviving fraction was calculated. The figure is the representative of the replicates. (D) The data are summarized in the table and represent the average of three replicates. […]
MDA-MB-231 cells were treated for 24 h with 1 µM, 2.5 µM, 5 µM, and 10 µM concentrations of DJ4. […] Cell number and cell viability were analyzed using Muse^TM Cell Viability reagent and Muse^TM (Millipore, Inc. Burlington, MA, USA) cell analyzer as per the manufacturer’s instructions.

In the case of `O=C1N/C(=N\CCc2ccccc2)S/C1=C/c1c[nH]c2ncccc12` [DJ4], the cell death by setting is: (MDA-MB-231, 1 µM) 29%; (MDA-MB-231, 10 µM) 47%.

The record behind these values is publication PMC10458458, “Characterization of Anticancer Effects of the Analogs of DJ4, a Novel Selective Inhibitor of ROCK and MRCK Kinases” (Pharmaceuticals, 2023).
